The numbers were not newly measured in patent publication US5470884A, “Anti-acne compositions” (Procter & Gamble, priority 1994, dated 1995), which cites them from elsewhere.

This data set concerns skin. The conditions noted are these: excessive drying, scaling, swelling, burning, peeling, redness, allergic contact dermatitis, sensitization.

As for `O=C(OOC(=O)c1ccccc1)c1ccccc1` [benzoyl peroxide], the skin irritation entry is “very irritating to the skin”.
